Article PMC11314295, “Discovery of Curcuminoids as Pancreatic Lipase Inhibitors from Medicine-and-Food Homology Plants” (Nutrients, 2024)
≈ marks a conversion by molar mass, not a printed value. Entries after “also recorded” stand apart in the source; their conditions may differ.

What was measured:
pancreatic lipase [1] = molecular target: T1, pancreatic lipase (Sus scrofa, UniProt P00591); assay: Fluorescence spectrometry (tryptophan fluorescence quenching, Stern-Volmer); conditions: for ΔS (entropy change) / ΔH (enthalpy): Van't Hoff, 298 and 310 K
T1 sequence (P00591 1-450): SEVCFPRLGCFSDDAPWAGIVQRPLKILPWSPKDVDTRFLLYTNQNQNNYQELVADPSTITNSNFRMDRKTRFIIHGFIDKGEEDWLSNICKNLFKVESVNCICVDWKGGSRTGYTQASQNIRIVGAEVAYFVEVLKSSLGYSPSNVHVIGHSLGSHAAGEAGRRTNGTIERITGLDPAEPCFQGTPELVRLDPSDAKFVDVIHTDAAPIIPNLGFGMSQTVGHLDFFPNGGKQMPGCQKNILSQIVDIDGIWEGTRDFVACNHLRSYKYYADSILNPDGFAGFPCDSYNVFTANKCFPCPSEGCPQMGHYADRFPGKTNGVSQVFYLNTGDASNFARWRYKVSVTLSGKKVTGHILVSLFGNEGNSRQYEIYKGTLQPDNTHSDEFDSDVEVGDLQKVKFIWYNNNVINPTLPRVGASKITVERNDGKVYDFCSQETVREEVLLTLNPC

pancreatic lipase [2] = molecular target: T1, pancreatic lipase; assay: Circular dichroism measurement of secondary structure; set-up: species or system porcine; conditions: for β-Turn (%) of pancreatic lipase / α-Helix (%) of pancreatic lipase / β-Sheet (%) of pancreatic lipase / Random Coil (%) of pancreatic lipase: lipase:compound molar ratio 1:1, 37 °C, 5 min; for β-Turn (%) of pancreatic lipase: lipase alone 14.8; for α-Helix (%) of pancreatic lipase: lipase alone 17.7; for β-Sheet (%) of pancreatic lipase: lipase alone 25.4; for decrease of β-sheet of pancreatic lipase / increase of α-helix content of pancreatic lipase: relative to pancreatic lipase alone; for Random Coil (%) of pancreatic lipase: lipase alone 42.1
pancreatic lipase [3] = molecular target: T1, pancreatic lipase; assay: Enzyme inhibition kinetics (Lineweaver-Burk analysis); format: biochemical, porcine; conditions: for inhibition type: Lineweaver-Burk plots, Vmax unchanged; for reversibility of inhibition: plots of v versus enzyme concentration
pancreatic lipase [4] = conditions: cited from earlier work
pancreatic lipase [5] = molecular target: T1, pancreatic lipase; assay: Affinity screening by ultrafiltration coupled with HPLC; format: binding, porcine; conditions: from change of HPLC peak area at 425 nm, turmeric extract, versus heat-inactivated enzyme
[6] = molecular target: T2, pancreatic lipase from porcine pancreas type II (Sus scrofa, UniProt P00591); assay: Pancreatic lipase inhibition in vitro (p-nitrophenyl butyrate hydrolysis, absorbance 410 nm); format: biochemical; conditions: curcuminoid chemical standards
T2 sequence (P00591 1-450): T1 sequence (P00591 1-450)

Ka (binding constant), bound stated (pancreatic lipase [1])	binding sites (pancreatic lipase [1])	Kq (fluorescence-quenching rate constant) (pancreatic lipase [1]; 298 K)	n (binding sites) (pancreatic lipase [1]; 298 K)	ΔG (free energy) (pancreatic lipase [1]; 298 K)	ΔG (free energy) (pancreatic lipase [1]; 310 K)	ΔS (entropy change) (pancreatic lipase [1])	β-Turn (%) of pancreatic lipase (pancreatic lipase [2])	α-Helix (%) of pancreatic lipase (pancreatic lipase [2])	β-Sheet (%) of pancreatic lipase (pancreatic lipase [2])	decrease of β-sheet of pancreatic lipase (pancreatic lipase [2])	reversibility of inhibition (pancreatic lipase [3])	Compound	inhibition type (pancreatic lipase [3])	Kq, compared with maximum dynamic quenching constant (pancreatic lipase [1])	Kq (fluorescence-quenching rate constant) (pancreatic lipase [1]; 310 K)	n (binding sites) (pancreatic lipase [1]; 310 K)	ΔH (enthalpy) (pancreatic lipase [1])	Random Coil (%) of pancreatic lipase (pancreatic lipase [2])	increase of α-helix content of pancreatic lipase (pancreatic lipase [2])	binding rate to pancreatic lipase (pancreatic lipase [5])	other results
> 10000 L/mol	~1	1.6 ± 0.07 ×10^12 L·mol^−1·s^−1	1.13 ± 0.03	-22.91 ± 0.24 kJ/mol	-25.02 ± 0.15 kJ/mol	−14.33 ± 0.14 J·mol^−1·K	15.9%	21.3%	21.7%	14.57%	reversible	O=C(/C=C/c1ccc(O)cc1)CC(=O)/C=C/c1ccc(O)cc1 [bisdemethoxycurcumin, Bisdemethoxycurcumin]	competitive inhibitors; also recorded: reversible competitive inhibition	–	–	–	–	–	–	–	–
–	–	–	–	–	–	–	–	–	–	–	–	C=C(C)[C@@H]1CC[C@]2(C(=O)O[C@@H]3O[C@H](CO[C@@H]4O[C@H](CO)[C@@H](O[C@@H]5O[C@@H](C)[C@H](O)[C@@H](O)[C@H]5O)[C@H](O)[C@H]4O)[C@@H](O)[C@H](O)[C@H]3O)CC[C@]3(C)[C@H](C[C@H]4OC(=O)C[C@@H](O)[C@]5(C)[C@@H]4[C@@]3(C)CC[C@H]5C(=C)C)[C@@H]12 [chiisanoside]	–	–	–	–	–	–	–	–	IC50 (pancreatic lipase [4]): 740 mg/L (≈ 775 µM)
> 10000 L/mol	~1	1.94 ± 0.10 ×10^12 L·mol^−1·s^−1	1.14 ± 0.02	-24.11 ± 0.13 kJ/mol	-26.44 ± 0.25 kJ/mol	−23.99 ± 0.10 J·mol^−1·K	15.7%	34.3%	15.3%	39.76%	reversible	COc1cc(/C=C/C(=O)CC(=O)/C=C/c2ccc(O)c(OC)c2)ccc1O [curcumin, Curcumin]	competitive inhibitors; also recorded: reversible competitive inhibition	> 2e+10 M⁻¹ s⁻¹	4.28 ± 0.25 ×10^12 L·mol^−1·s^−1	1.2 ± 0.02	-33.88 ± 0.30 kJ/mol	34.7%	93.78%	54.69%	–

Compound	Ka (binding constant), bound stated (pancreatic lipase [1])	binding sites (pancreatic lipase [1])	Kq (fluorescence-quenching rate constant) (pancreatic lipase [1]; 298 K)	n (binding sites) (pancreatic lipase [1]; 298 K)	ΔG (free energy) (pancreatic lipase [1]; 298 K)	ΔG (free energy) (pancreatic lipase [1]; 310 K)	ΔS (entropy change) (pancreatic lipase [1])	β-Turn (%) of pancreatic lipase (pancreatic lipase [2])	α-Helix (%) of pancreatic lipase (pancreatic lipase [2])	β-Sheet (%) of pancreatic lipase (pancreatic lipase [2])	decrease of β-sheet of pancreatic lipase (pancreatic lipase [2])	reversibility of inhibition (pancreatic lipase [3])	inhibition type (pancreatic lipase [3])	Kq, compared with maximum dynamic quenching constant (pancreatic lipase [1])	Kq (fluorescence-quenching rate constant) (pancreatic lipase [1]; 310 K)	n (binding sites) (pancreatic lipase [1]; 310 K)	ΔH (enthalpy) (pancreatic lipase [1])	Random Coil (%) of pancreatic lipase (pancreatic lipase [2])	increase of α-helix content of pancreatic lipase (pancreatic lipase [2])	binding rate to pancreatic lipase (pancreatic lipase [5])	other results
COc1cc(/C=C/C(O)=C/C(=O)/C=C/c2ccc(O)cc2)ccc1O [demethoxycurcumin, Demethoxycurcumin]	> 10000 L/mol	~1	1.64 ± 0.13 ×10^12 L·mol^−1·s^−1	1.12 ± 0.04	-23.28 ± 0.14 kJ/mol	-25.48 ± 0.21 kJ/mol	−18.82 ± 0.09 J·mol^−1·K	16.5%	26.4%	16.9%	33.46%	reversible	competitive inhibitors; also recorded: reversible competitive inhibition	> 2e+10 M⁻¹ s⁻¹	3.61 ± 0.24 ×10^12 L·mol^−1·s^−1	1.40 ± 0.01	-31.31 ± 0.22 kJ/mol	40.2%	49.15%	49.33%	maximum emission peak of pancreatic lipase after addition (blueshift from 350 nm) (pancreatic lipase [1]; excitation 280 nm): 342 nm; Ki (pancreatic lipase [3]; pancreatic lipase 5 mg/mL, p-nitrophenyl butyrate substrate, read-out: Ki (inhibition constant)): 840 ± 40 µM; IC50 [6]: 3310 µM
